Where a name gives a salt, the structure may show the parent alone.
Columns and labels:
Details in all cases: averaged IC50
[1] = target: His-tagged recombinant human MER cytoplasmic domain (Homo sapiens (Human), UniProt Q12866); assay: MER Enzyme Assay (LanthaScreen Eu Kinase Binding, TR-FRET)
How it was run: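 LanthaScreen Eu kinase binding (tracer displacement) assay with His-tagged human MER cytoplasmic domain, 60 min incubation at 22 °C. TR-FRET dual-wavelength emission ratio converted to percent of control; IC50 is where the 4-parameter logistic fit crosses 50 POC.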

[2] = target: His-tagged recombinant human AXL cytoplasmic domain (Homo sapiens (Human), UniProt P30530); assay: AXL Enzyme Assay (LanthaScreen Eu Kinase Binding, TR-FRET)
How it was run: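 LanthaScreen Eu kinase binding format, incubated 60 min at 22 °C and read by TR-FRET dual-wavelength emission ratio as percent of control. IC50 taken where a 4-parameter logistic fit crosses 50 POC.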

[3] = target: GST-tagged recombinant human TYRO3 kinase domain (Homo sapiens (Human), UniProt Q06418); assay: TYRO3 Enzyme Assay (LanthaScreen Eu Kinase Binding, TR-FRET)
How it was run: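 LanthaScreen Eu binding (tracer displacement) format read by TR-FRET after 60 min at 22 °C. Emission ratio converted to percent of control; IC50 taken where a 4-parameter logistic fit crosses 50 POC.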

Chain of His-tagged recombinant human AXL cytoplasmic domain (P30530 473-894): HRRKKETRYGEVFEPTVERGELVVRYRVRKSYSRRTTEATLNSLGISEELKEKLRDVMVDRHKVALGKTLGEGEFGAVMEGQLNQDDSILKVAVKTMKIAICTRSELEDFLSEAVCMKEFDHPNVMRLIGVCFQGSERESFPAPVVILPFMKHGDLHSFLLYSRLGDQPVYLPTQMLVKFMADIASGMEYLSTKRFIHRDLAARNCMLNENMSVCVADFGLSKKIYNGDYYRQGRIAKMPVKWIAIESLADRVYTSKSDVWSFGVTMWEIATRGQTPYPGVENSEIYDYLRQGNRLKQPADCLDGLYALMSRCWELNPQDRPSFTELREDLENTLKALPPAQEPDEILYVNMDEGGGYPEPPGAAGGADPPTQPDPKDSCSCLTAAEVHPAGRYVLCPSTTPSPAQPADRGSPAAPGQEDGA
Chain of GST-tagged recombinant human TYRO3 kinase domain (Q06418 518-790): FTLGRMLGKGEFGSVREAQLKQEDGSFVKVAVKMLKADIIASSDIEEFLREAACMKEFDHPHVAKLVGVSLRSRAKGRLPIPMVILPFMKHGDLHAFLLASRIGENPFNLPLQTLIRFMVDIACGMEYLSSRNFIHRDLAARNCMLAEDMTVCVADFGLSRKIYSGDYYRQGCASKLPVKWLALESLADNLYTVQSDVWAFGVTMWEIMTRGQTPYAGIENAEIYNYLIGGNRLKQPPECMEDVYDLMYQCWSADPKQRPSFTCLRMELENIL
Chain of His-tagged recombinant human MER cytoplasmic domain (Q12866 527-999): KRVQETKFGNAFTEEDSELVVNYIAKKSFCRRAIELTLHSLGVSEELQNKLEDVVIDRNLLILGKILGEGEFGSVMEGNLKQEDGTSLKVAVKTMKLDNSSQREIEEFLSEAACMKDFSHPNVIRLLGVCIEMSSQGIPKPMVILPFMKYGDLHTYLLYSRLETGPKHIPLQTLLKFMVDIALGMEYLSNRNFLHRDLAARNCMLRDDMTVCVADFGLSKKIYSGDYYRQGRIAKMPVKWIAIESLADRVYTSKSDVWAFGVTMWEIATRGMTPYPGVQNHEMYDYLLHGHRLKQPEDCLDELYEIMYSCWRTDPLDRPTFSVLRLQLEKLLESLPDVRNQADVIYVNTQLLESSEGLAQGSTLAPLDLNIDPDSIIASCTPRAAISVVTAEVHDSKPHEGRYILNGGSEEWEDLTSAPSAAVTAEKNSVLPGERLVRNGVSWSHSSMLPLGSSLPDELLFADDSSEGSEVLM

IC50 [1] [nM]	IC50 [2] [nM]	IC50 [3] [nM]	SMILES
< 10	< 10	< 10	CNc1cc2c(cn1)c(-c1cnn(C)c1)nn2[C@H]1CC[C@@H](Oc2ccc(=O)[nH]c2C(F)(F)F)CC1 [Example 105, 5-(((1s,4s)-4-(3-(1-methyl-1H-pyrazol-4-yl)-6-(methylamino)-1H-pyrazolo[4,3-c]pyridin-1-yl)cyclohexyl)oxy)-6-(trifluoromethyl)pyridin-2(1H)-one]
< 10	< 10	< 10	CNc1cc2c(cn1)c(-c1cnn(C[C@H](O)CO)c1)nn2[C@H]1CC[C@@H](Oc2cccnc2C(F)(F)F)CC1 [Example 204, (S)-3-(4-(6-(methylamino)-1-((1s,4R)-4-((2-(trifluoromethyl)pyridin-3-yl)oxy)cyclohexyl)-1H-pyrazolo[4,3-c]pyridin-3-yl)-1H-pyrazol-1-yl)propane-1,2-diol hydrochloride]
< 10	< 10	100 to 1000	CNc1cc2c(cn1)c(-c1ccc(CN3CCN(CCO)CC3)cc1)nn2[C@H]1CC[C@@H](Oc2ccc(=O)n(C)n2)CC1 [Example 78, 6-(((1s,4s)-4-(3-(4-((4-(2-hydroxyethyl)piperazin-1-yl)methyl)phenyl)-6-(methylamino)-1H-pyrazolo[4,3-c]pyridin-1-yl)cyclohexyl)oxy)-2-methylpyridazin-3(2H)-one]
< 10	< 10	100 to 1000	CNc1cc2c(cn1)c(-c1cnn(C(C)(C)C#N)c1)nn2[C@H]1CC[C@@H](Oc2cnn(C)c2C(F)(F)F)CC1 [Example 263, 2-methyl-2-(4-(1-((1s,4s)-4-((1-methyl-5-(trifluoromethyl)-1H-pyrazol-4-yl)oxy)cyclohexyl)-6-(methylamino)-1H-pyrazolo[4,3-c]pyridin-3-yl)-1H-pyrazol-1-yl)propanenitrile]
< 10	< 10	10 to 100	CCNc1cc2c(cn1)c(-c1cnn(C)c1)nn2[C@H]1CC[C@@H](Oc2nccc(C(F)(F)F)c2N(C)C)CC1 [Example 350, 1-((1s,4s)-4-((3-(dimethylamino)-4-(trifluoromethyl)pyridin-2-yl)oxy)cyclohexyl)-N-ethyl-3-(1-methyl-1H-pyrazol-4-yl)-1H-pyrazolo[4,3-c]pyridin-6-amine]
< 10	< 10	10 to 100	CCNc1cc2c(cn1)c(-c1cnn(C[C@@H](O)CO)c1)nn2[C@H]1CC[C@@H](Oc2cc(Cl)ccn2)CC1 [Example 246, (R)-3-(4-(1-((1s,4S)-4-((4-chloropyridin-2-yl)oxy)cyclohexyl)-6-(ethylamino)-1H-pyrazolo[4,3-c]pyridin-3-yl)-1H-pyrazol-1-yl)propane-1,2-diol]
< 10	< 10	< 10	CNc1cc2c(cn1)c(N1CCNCC1)nn2[C@H]1CC[C@@H](Oc2nccc(C(F)(F)F)c2F)CC1 [Example 495, 1-((1s,4s)-4-((3-fluoro-4-(trifluoromethyl)pyridin-2-yl)oxy)cyclohexyl)-N-methyl-3-(piperazin-1-yl)-1H-pyrazolo[4,3-c]pyridin-6-amine]
< 10	< 10	10 to 100	CNc1cc2c(cn1)c(-c1cnn(C(C)(C)C#N)c1)nn2[C@H]1CC[C@@H](Oc2nccnc2C)CC1 [Example 212, 2-methyl-2-(4-(6-(methylamino)-1-((1s,4s)-4-((3-methylpyrazin-2-yl)oxy)cyclohexyl)-1H-pyrazolo[4,3-c]pyridin-3-yl)-1H-pyrazol-1-yl)propanenitrile]
< 10	< 10	10 to 100	CCn1c(O[C@H]2CC[C@@H](n3nc(-c4cnn(C)c4)c4cnc(NC)cc43)CC2)cccc1=O [Example 111, 1-ethyl-6-(((1s,4s)-4-(3-(1-methyl-1H-pyrazol-4-yl)-6-(methylamino)-1H-pyrazolo[4,3-c]pyridin-1-yl)cyclohexyl)oxy)pyridin-2(1H)-one]
< 10	< 10	10 to 100	CCNc1cc2c(cn1)c(-c1cnn(C)c1)nn2[C@H]1CC[C@@H](Oc2nccc(C#N)c2F)CC1 [Example 352, 2-(((1s,4s)-4-(6-(ethylamino)-3-(1-methyl-1H-pyrazol-4-yl)-1H-pyrazolo[4,3-c]pyridin-1-yl)cyclohexyl)oxy)-3-fluoroisonicotinonitrile]
< 10	< 10	10 to 100	CCNc1cc2c(cn1)c(-c1ccn(C)c(=O)c1)nn2[C@H]1CC[C@@H](Oc2nccc(C(F)(F)F)c2F)CC1 [Example 297, 4-(6-(ethylamino)-1-((1s,4s)-4-((3-fluoro-4-(trifluoromethyl)pyridin-2-yl)oxy)cyclohexyl)-1H-pyrazolo[4,3-c]pyridin-3-yl)-1-methylpyridin-2(1H)-one]
< 10	< 10	10 to 100	CCNc1cc2c(cn1)c(N1CC[C@@H](NC)C1)nn2[C@H]1CC[C@@H](Oc2cccc(C(F)(F)F)c2F)CC1 [Example 492, N-ethyl-1-((1s,4S)-4-(2-fluoro-3-(trifluoromethyl)phenoxy)cyclohexyl)-3-((R)-3-(methylamino)pyrrolidin-1-yl)-1H-pyrazolo[4,3-c]pyridin-6-amine]
< 10	< 10	< 10	CCNc1cc2c(cn1)c(-c1cnn(C[C@H](O)[C@H](C)O)c1)nn2[C@H]1CC[C@@H](Oc2nccc(C(F)(F)F)c2F)CC1 [Example 239, (2S,3S)-1-(4-(6-(ethylamino)-1-((1s,4R)-4-((3-fluoro-4-(trifluoromethyl)pyridin-2-yl)oxy)cyclohexyl)-1H-pyrazolo[4,3-c]pyridin-3-yl)-1H-pyrazol-1-yl)butane-2,3-diol]
< 10	< 10	10 to 100	CCNc1cc2c(cn1)c(-c1cnn(C[C@@H](O)CO)c1)nn2[C@H]1CC[C@@H](Oc2ccc(F)cc2Cl)CC1 [Example 436, (R)-3-(4-(1-((1s,4S)-4-(2-chloro-4-fluorophenoxy)cyclohexyl)-6-(ethylamino)-1H-pyrazolo[4,3-c]pyridin-3-yl)-1H-pyrazol-1-yl)propane-1,2-diol]
< 10	< 10	< 10	CNc1cc2c(cn1)c(-c1cnn(C[C@@H](O)CO)c1)nn2[C@H]1CC[C@@H](Oc2cccnc2C(F)(F)F)CC1 [Example 206, ®-3-(4-(6-(methylamino)-1-((1s,4s)-4-((2-(trifluoromethyl)pyridin-3-yl)oxy)cyclohexyl)-1H-pyrazolo[4,3-c]pyridin-3-yl)-1H-pyrazol-1-yl)propane-1,2-diol]
< 10	< 10	10 to 100	CCNc1cc2c(cn1)c(C1CCN(CCOC)CC1)nn2[C@H]1CC[C@@H](Oc2nccc(C(F)(F)F)c2F)CC1 [Example 327, N-ethyl-1-((1s,4s)-4-((3-fluoro-4-(trifluoromethyl)pyridin-2-yl)oxy)cyclohexyl)-3-(1-(2-methoxyethyl)piperidin-4-yl)-1H-pyrazolo[4,3-c]pyridin-6-amine]
< 10	< 10	10 to 100	CNc1cc2c(cn1)c(-c1cnn(C3CCN(C)CC3)c1)nn2[C@H]1CC[C@@H](Oc2nccnc2C)CC1 [Example 214, N-methyl-3-(1-(1-methylpiperidin-4-yl)-1H-pyrazol-4-yl)-1-((1s,4s)-4-((3-methylpyrazin-2-yl)oxy)cyclohexyl)-1H-pyrazolo[4,3-c]pyridin-6-amine]
< 10	< 10	10 to 100	CCNc1cc2c(cn1)c(-c1ccc(CN3CCN(C)CC3)cc1)nn2[C@H]1CC[C@@H](Oc2nccc(C(F)(F)F)c2F)CC1 [Example 261, N-ethyl-1-((1s,4s)-4-((3-fluoro-4-(tnfluoromethyl)pyridin-2-yl)oxy)cyclohexyl)-3-(4-((4-methylpiperazin-1-yl)methyl)phenyl)-1H-pyrazolo[4,3-c]pyridin-6-amine]
< 10	< 10	10 to 100	CCNc1cc2c(cn1)c(-c1cnn(C[C@@H](O)CO)c1)nn2[C@H]1CC[C@@H](Oc2ccc(F)cc2F)CC1 [Example 423, (R)-3-(4-(1-((1s,4S)-4-(2,4-difluorophenoxy)cyclohexyl)-6-(ethylamino)-1H-pyrazolo[4,3-c]pyridin-3-yl)-1H-pyrazol-1-yl)propane-1,2-diol]
< 10	< 10	< 10	CCNc1cc2c(cn1)c(-c1cnn(C)c1)nn2[C@H]1CC[C@@H](Oc2cccc(C#N)c2C)CC1 [Example 382, 3-(((1s,4s)-4-(6-(ethylamino)-3-(1-methyl-1H-pyrazol-4-yl)-1H-pyrazolo[4,3-c]pyridin-1-yl)cyclohexyl)oxy)-2-methylbenzonitrile]
< 10	< 10	< 10	C#Cc1ncccc1OC1CCC(n2nc(-c3cnn(C)c3)c3cnc(NCC)cc32)CC1 (stereo not drawn) [Example 199, N-ethyl-1-((1s,4s)-4-((2-ethynylpyridin-3-yl)oxy)cyclohexyl)-3-(1-methyl-1H-pyrazol-4-yl)-1H-pyrazolo[4,3-c]pyridin-6-amine]
< 10	< 10	10 to 100	CNc1cc2c(cn1)c(-c1cnn(C(CO)CO)c1)nn2[C@H]1CC[C@@H](Oc2ccc(F)cc2)CC1 [Example 410, 2-(4-(1-((1s,4s)-4-(4-fluorophenoxy)cyclohexyl)-6-(methylamino)-1H-pyrazolo[4,3-c]pyridin-3-yl)-1H-pyrazol-1-yl)propane-1,3-diol]

— patent publication US11247990B1, “Bicyclic fused pyridine compounds as inhibitors of TAM kinases” (ARRAY BIOPHARMA INC., priority 2017, dated 2022)
